{
  "source": "patent US7723320B2",
  "about": "“Use of estrogen compounds to increase libido in women” (Pantarhei Bioscience B.V., priority 2001, dated 2010)",
  "key": {"postmenopausal women": {"tested_on": "postmenopausal women", "test": "Clinical study of libido in postmenopausal women", "assay_type": "in vivo, human", "conditions": "4 months", "protocol": "In a baseline cycle, coitus frequency and sexual satisfaction (female orgasm) are recorded.\nEach participant receives blinded medication in 2 differently labeled bottles, filled with tablets. One bottle comprises tablets that contain 2 mg estetrol, whilst the other bottle contains identical placebo tablets. The participants are allowed to choose from which bottle to take a tablet, but are instructed not to use more than 1 tablet per 24 hours and not more than 2 tablets a week. The total duration of the study is 4 months."}, "human ERα": {"biological_target": "T1, human ERα (Homo sapiens, UniProt P03372)", "T1 sequence (P03372 1-595)": "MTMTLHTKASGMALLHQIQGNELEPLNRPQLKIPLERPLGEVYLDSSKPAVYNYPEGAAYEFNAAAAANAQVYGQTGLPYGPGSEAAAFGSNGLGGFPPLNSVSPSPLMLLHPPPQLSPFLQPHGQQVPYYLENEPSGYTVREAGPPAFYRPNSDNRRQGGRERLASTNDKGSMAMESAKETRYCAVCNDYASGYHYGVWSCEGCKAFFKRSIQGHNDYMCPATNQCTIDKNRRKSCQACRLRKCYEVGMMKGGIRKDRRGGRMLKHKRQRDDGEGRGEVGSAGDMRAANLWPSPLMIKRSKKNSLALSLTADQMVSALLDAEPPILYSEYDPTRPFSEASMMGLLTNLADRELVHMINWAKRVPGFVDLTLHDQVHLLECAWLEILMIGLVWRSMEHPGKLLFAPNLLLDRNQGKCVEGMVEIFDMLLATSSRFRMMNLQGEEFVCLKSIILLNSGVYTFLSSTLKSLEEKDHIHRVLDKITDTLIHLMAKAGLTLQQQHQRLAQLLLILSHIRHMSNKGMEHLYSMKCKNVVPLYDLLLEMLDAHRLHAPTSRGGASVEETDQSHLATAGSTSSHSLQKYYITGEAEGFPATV", "test": "Competitive steroid binding assay, ERα", "conditions": "for inhibition at 0.003 µM: E4 3 nM; for inhibition at 0.01 µM: E4 10 nM; for inhibition at 0.03 µM: E4 0.03 μM; for inhibition at 0.1 µM: E4 0.1 μM; for inhibition at 0.3 µM: E4 0.3 μM"}, "[1]": {"biological_target": "T2, rat uterine cytosol estrogen receptor (Rattus norvegicus, UniProt P06211)", "T2 construct": "rat uterine cytosol estrogen receptor; host or cells: rat uterus (cytosol / nuclear fraction)", "T2 sequence (P06211 1-600)": "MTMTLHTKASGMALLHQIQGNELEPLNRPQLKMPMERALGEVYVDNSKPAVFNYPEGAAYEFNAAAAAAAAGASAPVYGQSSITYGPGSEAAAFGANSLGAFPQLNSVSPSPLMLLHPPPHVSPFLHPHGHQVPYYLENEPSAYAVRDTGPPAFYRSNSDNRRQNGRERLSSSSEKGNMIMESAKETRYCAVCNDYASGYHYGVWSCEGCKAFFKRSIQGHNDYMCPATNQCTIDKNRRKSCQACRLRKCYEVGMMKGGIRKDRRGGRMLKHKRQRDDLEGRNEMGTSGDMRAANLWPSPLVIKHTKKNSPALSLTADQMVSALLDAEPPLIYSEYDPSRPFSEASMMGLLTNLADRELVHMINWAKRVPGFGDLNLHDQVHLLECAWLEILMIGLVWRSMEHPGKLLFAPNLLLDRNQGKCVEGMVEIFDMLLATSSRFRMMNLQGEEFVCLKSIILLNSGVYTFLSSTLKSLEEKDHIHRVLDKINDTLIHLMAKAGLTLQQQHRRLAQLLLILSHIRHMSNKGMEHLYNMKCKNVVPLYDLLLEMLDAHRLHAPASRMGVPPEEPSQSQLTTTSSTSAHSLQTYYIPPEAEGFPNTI", "conditions": "cited from earlier work"}, "human ERβ": {"biological_target": "T3, human ERβ (Homo sapiens, UniProt Q92731)", "T3 construct": "made in house; host or cells: Sf9 insect cells", "T3 sequence (Q92731 whole entry)": "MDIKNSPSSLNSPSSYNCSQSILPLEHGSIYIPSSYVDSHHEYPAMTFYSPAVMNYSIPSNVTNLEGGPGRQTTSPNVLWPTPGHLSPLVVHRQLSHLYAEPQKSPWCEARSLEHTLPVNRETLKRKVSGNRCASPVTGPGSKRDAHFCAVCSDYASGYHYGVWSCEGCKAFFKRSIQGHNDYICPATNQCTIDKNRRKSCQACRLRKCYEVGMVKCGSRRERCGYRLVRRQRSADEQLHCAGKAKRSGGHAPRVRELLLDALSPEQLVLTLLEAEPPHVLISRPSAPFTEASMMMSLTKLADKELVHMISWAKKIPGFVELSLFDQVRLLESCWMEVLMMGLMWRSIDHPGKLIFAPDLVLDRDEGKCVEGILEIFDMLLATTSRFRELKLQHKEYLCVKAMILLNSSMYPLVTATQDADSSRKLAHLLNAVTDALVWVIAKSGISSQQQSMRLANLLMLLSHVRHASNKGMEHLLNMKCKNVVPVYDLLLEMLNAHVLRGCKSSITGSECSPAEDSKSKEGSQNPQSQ", "test": "Competitive steroid binding assay, ERβ", "conditions": "read-out: Percent inhibition of specific binding in ERβ steroid binding assay; for inhibition at 0.03 µM: E4 0.03 μM; for inhibition at 0.1 µM: E4 0.1 μM; for inhibition at 0.3 µM: E4 0.3 μM; for inhibition at 1 µM: E4 1 μM"}, "[2]": {"conditions": "Test 1, read-out: Percent inhibition of specific binding in ERα steroid binding assay"}, "[3]": {"conditions": "Test 2, read-out: Percent inhibition of specific binding in ERα steroid binding assay"}, "[4]": {"conditions": "Test 3, read-out: Percent inhibition of specific binding in ERα steroid binding assay"}},
  "note": "Where two headings read alike, the source gives them in different places.",
  "data": [
    {"smiles": "C[C@]12CC[C@@H]3c4ccc(O)cc4CC[C@H]3[C@@H]1[C@@H](O)[C@@H](O)[C@@H]2O", "note": "[E4, 1,3,5(10)-estratrien-3,15α,16α,17β-tetrol]", "values": [
      {"measurement": "use of estetrol containing tablets versus placebo tablets", "setting": "postmenopausal women; blinded free choice between two bottles", "value": "significantly more"},
      {"measurement": "libido and sexual enjoyment in comparison to baseline", "setting": "postmenopausal women; oral 2 mg tablets on demand, postmenopausal women", "value": "improved libido and sexual enjoyment"},
      {"measurement": "undesirable side-effects", "setting": "postmenopausal women; oral 2 mg tablets, max 2 tablets a week", "value": "no undesirable side-effects are reported"},
      {"measurement": "inhibition at 0.003 µM", "setting": "human ERα; [2]", "value": 26, "unit": "%"},
      {"measurement": "inhibition at 0.003 µM", "setting": "human ERα; [3]", "value": 17, "unit": "%"},
      {"measurement": "inhibition at 0.003 µM", "setting": "human ERα; [4]", "value": 11, "unit": "%"},
      {"measurement": "inhibition at 0.01 µM", "setting": "human ERα; [2]", "value": 43, "unit": "%"},
      {"measurement": "inhibition at 0.01 µM", "setting": "human ERα; [3]", "value": 32, "unit": "%"},
      {"measurement": "inhibition at 0.01 µM", "setting": "human ERα; [4]", "value": 28, "unit": "%"},
      {"measurement": "inhibition at 0.03 µM", "setting": "human ERα; [2]", "value": 64, "unit": "%"},
      {"measurement": "inhibition at 0.03 µM", "setting": "human ERα; [3]", "value": 66, "unit": "%"},
      {"measurement": "inhibition at 0.03 µM", "setting": "human ERα; [4]", "value": 63, "unit": "%"},
      {"measurement": "inhibition at 0.1 µM", "setting": "human ERα; [2]", "value": 83, "unit": "%"},
      {"measurement": "inhibition at 0.1 µM", "setting": "human ERα; [3]", "value": 85, "unit": "%"},
      {"measurement": "inhibition at 0.1 µM", "setting": "human ERα; [4]", "value": 86, "unit": "%"},
      {"measurement": "inhibition at 0.3 µM", "setting": "human ERα; [2]", "value": 92, "unit": "%"},
      {"measurement": "inhibition at 0.3 µM", "setting": "human ERα; [3]", "value": 94, "unit": "%"},
      {"measurement": "inhibition at 0.3 µM", "setting": "human ERα; [4]", "value": 101, "unit": "%"},
      {"measurement": "inhibition at 1 µM", "setting": "human ERα; E4 1 μM, Test 1, read-out: Percent inhibition of specific binding in ERα steroid binding assay", "value": 98, "unit": "%"},
      {"measurement": "Relative ERα/ERβ preference", "setting": "human ERα; from Ki values for ERα and ERβ", "value": 400, "unit": "%"},
      {"measurement": "relative binding affinity, of 17β-estradiol (100%)", "setting": "[1]", "value": 0.5, "unit": "%"},
      {"measurement": "inhibition at 0.03 µM", "setting": "human ERβ; Test 1", "value": 19, "unit": "%"},
      {"measurement": "inhibition at 0.03 µM", "setting": "human ERβ; Test 2", "value": 25, "unit": "%"},
      {"measurement": "inhibition at 0.03 µM", "setting": "human ERβ; Test 3", "value": 30, "unit": "%"},
      {"measurement": "inhibition at 0.1 µM", "setting": "human ERβ; Test 1", "value": 56, "unit": "%"},
      {"measurement": "inhibition at 0.1 µM", "setting": "human ERβ; Test 2", "value": 54, "unit": "%"},
      {"measurement": "inhibition at 0.1 µM", "setting": "human ERβ; Test 3", "value": 50, "unit": "%"},
      {"measurement": "inhibition at 0.3 µM", "setting": "human ERβ; Test 1", "value": 74, "unit": "%"},
      {"measurement": "inhibition at 0.3 µM", "setting": "human ERβ; Test 2", "value": 74, "unit": "%"},
      {"measurement": "inhibition at 0.3 µM", "setting": "human ERβ; Test 3", "value": 77, "unit": "%"},
      {"measurement": "inhibition at 1 µM", "setting": "human ERβ; Test 1", "value": 87, "unit": "%"},
      {"measurement": "inhibition at 1 µM", "setting": "human ERβ; Test 2", "value": 90, "unit": "%"},
      {"measurement": "inhibition at 1 µM", "setting": "human ERβ; Test 3", "value": 95, "unit": "%"}
    ]}
  ]
}
